Measurements from patent US9604975B2, “Indolyl-pyridone derivatives having checkpoint kinase 1 inhibitory activity” (Vernalis (R&D) Ltd., priority 2009, dated 2017).

Target: T1, CHK1 (Homo sapiens, UniProt O14757)
T1 construct: His; purchased Invitrogen
T1 sequence (O14757 1-476): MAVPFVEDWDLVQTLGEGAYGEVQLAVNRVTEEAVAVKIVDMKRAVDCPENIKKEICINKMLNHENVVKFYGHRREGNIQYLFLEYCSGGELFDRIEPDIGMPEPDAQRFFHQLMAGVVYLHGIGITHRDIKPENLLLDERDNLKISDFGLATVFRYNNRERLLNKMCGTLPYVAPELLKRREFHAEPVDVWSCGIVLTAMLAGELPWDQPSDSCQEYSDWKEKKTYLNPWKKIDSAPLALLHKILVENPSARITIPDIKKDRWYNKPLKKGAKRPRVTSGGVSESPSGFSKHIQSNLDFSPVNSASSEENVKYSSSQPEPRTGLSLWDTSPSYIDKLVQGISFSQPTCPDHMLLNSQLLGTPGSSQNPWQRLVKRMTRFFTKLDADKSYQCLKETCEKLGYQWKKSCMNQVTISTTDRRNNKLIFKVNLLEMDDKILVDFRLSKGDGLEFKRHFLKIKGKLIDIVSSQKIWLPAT
Assay: CHK1 Enzyme Assay (phosphorylation of Chktide peptide, 33P-ATP filter assay)
Assay type: biochemical
Conditions: 12.5 nM His-CHK1, 0.01 mM ATP, 40 minutes at 30° C.; read-out: CHK1 Enzyme Activity (IC50 range)
Procedure: Assays for the CHK1 kinase activity were carried out by monitoring the phosphorylation of a synthetic peptide Chktide with the amino acid sequence, […]. The assay mixture containing the inhibitor and CHK1 enzyme was mixed together in a microtiter plate in a final volume of 50 μl and incubated for 40 minutes at 30° C.
The assay mixture contained 0.01 mM unlabeled ATP, 0.5 μCi ^33P-γ-ATP, 14.8 μM Chktide, 0.1 mg/mL BSA, 50 mM Hepes-NaOH pH 7.5 and 12.5 nM His-CHK1 (Invitrogen) enzyme. The reaction was stopped by adding 50 μL of 50 mM phosphoric acid. 90 μL of the mixture was transferred to a pre-wetted 96-well multi-screen MAPHNOB filtration plate (Millipore) and filtered on a vacuum manifold. The filter plate was washed with 3 successive additions of 200 μl 50 mM phosphoric acid and then with 100 μL methanol. The filtration plate was dried for 10 min at 65° C., scintillant added and phosphorylated peptide quantified in a scintillation counter (Trilux, PerkinElmer).

IC50 [nM]	Compound
< 100	COCCN(C)Cc1ccc2[nH]c(-c3cc(NC(=O)c4cnn(Cc5ccccc5)c4)c[nH]c3=O)cc2c1 [Example 79, 1-Benzyl-1H-pyrazole-4-carboxylic acid [5-(5-{1(2-methoxy-ethyl)-methyl-aminol-methyl}-1H-indol-2-yl)-6-oxo-1,6-dihydro-pyridin-3-yl]-amide]
100 to 500	Cc1[nH]c(=O)c(-c2cc3ccccc3[nH]2)cc1C(=O)Nc1cnn(Cc2ccc(F)c(F)c2)c1 [Example 19, 5-(1H-Indol-2-yl)-2-methyl-6-oxo-1,6-dihydro-pyridine-3-carboxylic acid [1-(3,4-difluoro-benzyl)-1H-pyrazol-4-yl]-amide]
< 100	O=C(Nc1cnn(Cc2ccccc2)c1)c1c[nH]c(=O)c(-c2cc3cc(CN4CCNCC4)ccc3[nH]2)c1 [Example 16, 6-oxo-5-(5-piperazin-1-ylmethyl-1H-indol-2-yl)-1,6-dihydro-pyridine-3-carboxylic acid (1-benzyl-1H-pyrazol-4-yl)-amide]
< 100	O=C(Nc1cnn(Cc2ccccc2)c1)c1c[nH]c(=O)c(-c2cc3ccccc3[nH]2)c1 [Example 1, 5-(1H-Indol-2-yl)-6-oxo-1,6-dihydro-pyridine-3-carboxylic acid (1-benzyl-1H-pyrazol-4-yl)-amide]
< 100	O=C(Nc1cnn(Cc2cccc(F)c2)c1)c1c[nH]c(=O)c(-c2cc3ccccc3[nH]2)c1 [Example 9, 5-(1H-Indol-2-yl)-6-oxo-1,6-dihydro-pyridine-3-carboxylic acid [1-(3-fluoro-benzyl)-1H-pyrazol-4-yl]-amide]
< 100	O=C(Nc1cnn(Cc2cccnc2)c1)c1c[nH]c(=O)c(-c2cc3ccccc3[nH]2)c1 [Example 35, 5-(1H-Indol-2-yl)-6-oxo-1,6-dihydro-pyridine-3-carboxylic acid (1-pyridin-3-ylmethyl-1H-pyrazol-4-yl)-amide]
< 100	O=C(Nc1c[nH]c(=O)c(-c2cc3cc(CN4CCOCC4)ccc3[nH]2)c1)c1cnn(Cc2ccccc2)c1 [Example 51, 1-Benzyl-1H-pyrazole-4-carboxylic acid [5-(5-morpholin-4-ylmethyl-1H-indol-2-yl)-6-oxo-1,6-dihydro-pyridin-3-yl]-amide]
500 to 1500	Cc1ccccc1Cn1cc(NC(=O)c2c[nH]c(=O)c(-c3cc4ccccc4[nH]3)c2)cn1 [Example 3, 5-(1H-Indol-2-yl)-6-oxo-1,6-dihydro-pyridine-3-carboxylic acid [1-(2-methyl-benzyl)-1H-pyrazol-4-yl]-amide]
< 100	CCc1cccc(Cn2cc(C(=O)Nc3c[nH]c(=O)c(-c4cc5cc(OCCCN(C)C)ccc5[nH]4)c3)cn2)c1 [Example 129, 1-(3-Ethyl-benzyl)-1H-pyrazole-4-carboxylic acid {5-[5-(3-dimethylamino-propoxy)-1H-indol-2-yl]-6-oxo-1,6-dihydro-pyridin-3-yl}-amide]
< 100	O=C(Nc1cnn(Cc2ccc(F)c(F)c2)c1)c1c[nH]c(=O)c(-c2cc3cc(CN4CCN(CCO)CC4)ccc3[nH]2)c1 [Example 105, 5-{5-[4-(2-Hydroxyethyl)-piperazin-1-ylmethyl]-1H-indol-2yl}-6-oxo-1,6-dihydropyridine-3-carboxylic acid[1-(3,4-difluorobenzyl)-1H-pyrazol-4-yl]-amide]

Further lines, the molecule ahead of its results:

Compound	IC50 [nM]
CC(c1ccccc1)n1cc(C(=O)Nc2c[nH]c(=O)c(-c3cc4cc(CN5CCCCC5)ccc4[nH]3)c2)cn1 (stereo not shown) [Example 85, 1-(1-Phenyl-ethyl)-1H-pyrazole-4-carboxylic acid [6-oxo-5-(5-piperidin-1-ylmethyl-1H-indol-2-yl)-1,6-dihydro-pyridin-3-yl]-amide]	< 100
C[C@@H](c1ccccc1)n1cc(C(=O)Nc2c[nH]c(=O)c(-c3cc4cc(CN5CCC(F)CC5)ccc4[nH]3)c2)cn1 [Example 164, 1-((S)-1-Phenyl-ethyl)-1H-pyrazole-4-carboxylic acid {5-[5-(4-fluoro-piperidin-1-ylmethyl)-1H-indol-2-yl]-6-oxo-1,6-dihydro-pyridin-3-yl}-amide]	< 100
Cc1ccc(Cn2cc(C(=O)Nc3c[nH]c(=O)c(-c4cc5cc(CN6CCCC6)ccc5[nH]4)c3)cn2)cc1 [Example 41, 1-(4-Methyl-benzyl)-1H-pyrazole-4-carboxylic acid [6-oxo-5-(5-pyrrolidin-1-ylmethyl-1H-indol-2-yl)-1,6-dihydro-pyridin-3-yl]-amide]	< 100
Cc1ccc(Cn2cc(C(=O)Nc3c[nH]c(=O)c(-c4cc5cc(CNCCO)ccc5[nH]4)c3)cn2)cc1 [Example 54, 1-(4-Methyl-benzyl)-1H-pyrazole-4-carboxylic acid {5-[5-[(2-hydroxy-ethylamino)-methyl]-1H-indol-2-yl}-6-oxo-1,6-dihydro-pyridin-3-yl]-amide]	< 100
O=C(Nc1c[nH]c(=O)c(-c2cc3cc(CN4CCCCC4)ccc3[nH]2)c1)c1cnn(Cc2ccc(F)cc2)c1 [Example 80, 1-(4-Fluoro-benzyl)-1H-pyrazole-4-carboxylic acid [6-oxo-5-(5-piperidin-1-ylmethyl-1H-indol-2-yl)-1,6-dihydro-pyridin-3-yl]-amide]	< 100
CC(c1ccc(F)cc1)n1cc(C(=O)Nc2c[nH]c(=O)c(-c3cc4cc(CN5CCCCC5)ccc4[nH]3)c2)cn1 (stereo not shown) [Example 88, 1-[1-(4-Fluoro-phenyl)-ethyl]-1H-pyrazole-4-carboxylic acid [6-oxo-5-(5-piperidin-1-ylmethyl-1-H-indol-2-yl)-1,6-dihydro-pyridin-3-yl]-amide]	< 100
Cc1ccc(Cn2cc(C(=O)Nc3c[nH]c(=O)c(-c4cc5cc(OCCCN6CCN(C)CC6)ccc5[nH]4)c3)cn2)cc1 [Example 124]	< 100
Cc1ccc(Cn2cc(C(=O)Nc3c[nH]c(=O)c(-c4cc5cc(OCCN6CCOCC6)ccc5[nH]4)c3)cn2)cc1 [Example 118, 1-(4-Methyl-benzyl)-1H-pyrazole-4-carboxylic acid {5-[5-(2-morpholin-4-yl-ethoxy)-1H-indol-2-yl]-6-oxo-1,6-dihydro-pyridin-3-yl}-amide]	< 100
CCc1cccc(Cn2cc(C(=O)Nc3c[nH]c(=O)c(-c4cc5cc(OCCCN6CCCCC6)ccc5[nH]4)c3)cn2)c1 [Example 134, 1-(3-Ethyl-benzyl)-1H-pyrazole-4-carboxylic acid {6-oxo-5-[5-(3-piperidin-1-yl-propoxy)-1H-indol-2-yl]-1,6-dihydro-pyridin-3-yl}-amide]	< 100
CN1CCN(c2ccc3[nH]c(-c4cc(NC(=O)c5cnn(Cc6ccc(F)cc6)c5)c[nH]c4=O)cc3c2)CC1 [Example 114, 1-(4-Fluoro-benzyl)-1H-pyrazole-4-carboxylic acid {5-[5-(4-methyl-piperazin-1-yl)-1H-indol-2-yl]-6-oxo-1,6-dihydro-pyridin-3-yl}-amide]	< 100
CC(C)c1ccc(Cn2cc(C(=O)Nc3c[nH]c(=O)c(-c4cc5cc(OCCCN(C)C)ccc5[nH]4)c3)cn2)cc1 [Example 157, 1-(4-Isopropylbenzyl)-1H-pyrazole-4-carboxylic acid {5-[5-(3-dimethylaminopropoxy)-1H-indol-2-yl)-6-oxo-1,6-dihydropyridin-3-yl}-amide]	< 100
CN(C)CCCOc1ccc2[nH]c(-c3cc(NC(=O)c4cnn(Cc5ccc(C(C)(C)C)cc5)c4)c[nH]c3=O)cc2c1 [Example 156, 1-(4-tert-butylbenzyl)-1H-pyrazole-4-carboxylic acid {5-[5-(3-dimethylaminopropoxy)-1H-indol-2-yl)-6-oxo-1,6-dihydropyridin-3-yl}-amide]	< 100
